Reference: patent US8536202B2, “Triazole-substituted anthranilamides as pesticides” (Bayer Cropscience AG, priority 2010, dated 2013)
Read-outs that look alike come from different tables or passages of the source. One block for each compound: values may come before it.

Columns and labels:
[1] = log P determination by HPLC on reversed-phase columns (EEC Directive 79/831 Annex V.A8); assay type: physicochemical; conditions: pH 2.7
How it was run: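 Calibration used unbranched alkan-2-ones of 3 to 16 carbons with known log P, values interpolated linearly from retention times between neighbouring standards. Acidic-range LC-MS run at pH 2.7, eluents aqueous and acetonitrile formic acid 0.1%, linear gradient 10% to 95% acetonitrile.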

[2] = test system: green peach aphid (Myzus persicae); assay: Myzus test (MYZUPE spray treatment), Use Example 4; assay type: in vivo; conditions: 144 h, after 6 days; for pest or weed control at 100 g/ha: read-out: activity in %
Description: Solvents: 78 parts by weight of acetone • • 1.5 parts by weight of dimethylformamide
Emulsifier: 0.5 part by weight of alkylaryl polyglycol ether
An appropriate preparation of active compound is prepared by mixing 1 part by weight of active compound with the stated amounts of solvents and emulsifier and diluting the concentrate with emulsifier-containing water to the desired concentration.
Leaf discs of Chinese cabbage (Brassica pekinensis) infested by all stages of the green peach aphid (Myzus persicae) are sprayed with a preparation of active compound at the desired concentration.
After 6 days, the activity in % is ascertained. Here, 100% means that all of the aphids have been killed; 0% means that no aphids have been killed.

[3] = test system: caterpillars of the armyworm (Spodoptera frugiperda); assay: Spodoptera frugiperda test (SPODFR spray treatment); assay type: in vivo; conditions: 168 h, 100 g/ha, after 7 days, read-out: activity in %
How it was run: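 Percent caterpillar mortality read 7 days after infestation (0% none killed, 100% all killed). Treatment was a spray of the acetone/DMF/emulsifier formulation, water-diluted to test concentration, onto Zea mays leaf discs, allowed to dry before larvae were added.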

[4] = test system: larvae of the mustard beetle (Phaedon cochleariae); assay: Phaedon test (PHAECO spray treatment); assay type: in vivo; conditions: 168 h, 100 g/ha, after 7 days, read-out: activity in %
How it was run: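 Mortality of mustard beetle larvae, expressed as percent killed (100% all, 0% none), assessed 7 days after spraying. Spray liquor made from compound in acetone plus dimethylformamide with alkylaryl polyglycol ether, diluted in emulsifier-containing water to the desired concentration.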

[5] = reversed-phase C18 HPLC column, HPLC on reversed-phase columns (C 18), EEC Directive 79/831 Annex V.A8, read-out: logP

chromatographic logP [1, 5]: 2.66
SMILES: CNC(=O)c1cc(C#N)cc(C)c1NC(=O)c1cc(Cn2cc(C(F)(F)F)nn2)nn1-c1ncccc1Br [Example 5]
pest or weed control at 100 g/ha [2]: 100%
pest or weed control at 100 g/ha [3]: 100%
pest or weed control at 100 g/ha [4]: 100%

chromatographic logP [1, 5]: 3.11
SMILES: Cc1cc(C#N)cc(C(=O)NC(C)C)c1NC(=O)c1cc(Cn2cc(C(F)(F)F)nn2)nn1-c1ncccc1Br [Example 6]
pest or weed control at 100 g/ha [2]: 90%
pest or weed control at 100 g/ha [3]: 100%
pest or weed control at 100 g/ha [4]: 100%

chromatographic logP [1, 5]: 2.88
SMILES: CCNC(=O)c1cc(C#N)cc(C)c1NC(=O)c1cc(Cn2cc(C(F)(F)F)nn2)nn1-c1ncccc1Br [Example 8]
pest or weed control at 100 g/ha [2]: 80%
pest or weed control at 100 g/ha [3]: 100%
pest or weed control at 100 g/ha [4]: 100%

chromatographic logP [1, 5]: 2.33
SMILES: CNC(=O)c1cc(C#N)cc(C)c1NC(=O)c1cc(Cn2ncc(C(F)(F)F)n2)nn1-c1ncccc1Br [Example 9]
pest or weed control at 100 g/ha [2]: 100%
pest or weed control at 100 g/ha [3]: 100%
pest or weed control at 100 g/ha [4]: 100%

chromatographic logP [1, 5]: 2.55
SMILES: Cc1cc(C#N)cc(C(=O)NC2CC2)c1NC(=O)c1cc(Cn2ncc(C(F)(F)F)n2)nn1-c1ncccc1Br [Example 11]
pest or weed control at 100 g/ha [2]: 100%
pest or weed control at 100 g/ha [3]: 100%
pest or weed control at 100 g/ha [4]: 100%

chromatographic logP [1, 5]: 2.53
SMILES: CCNC(=O)c1cc(C#N)cc(C)c1NC(=O)c1cc(Cn2ncc(C(F)(F)F)n2)nn1-c1ncccc1Br [Example 12]
pest or weed control at 100 g/ha [2]: 100%
pest or weed control at 100 g/ha [3]: 100%
pest or weed control at 100 g/ha [4]: 100%

SMILES: CNC(=O)c1cc(Cl)cc(C)c1NC(=O)c1cc(Cn2ncc(C3CC3)n2)nn1-c1ncccc1Cl [Example 21]
chromatographic logP [1]: 2.85
pest or weed control at 100 g/ha [2]: 100%
pest or weed control at 100 g/ha [3]: 100%
pest or weed control at 100 g/ha [4]: 100%

SMILES: Cc1cc(C#N)cc(C(=O)NC(C)(C)C)c1NC(=O)c1cc(Cn2cc(-c3ccc(F)cc3)nn2)nn1-c1ncccc1Cl [Example 53]
chromatographic logP [1]: 3.17
pest or weed control at 100 g/ha [2]: 80%
pest or weed control at 100 g/ha [3]: 100%
pest or weed control at 100 g/ha [4]: 100%

SMILES: Cc1cc(C#N)cc(C(=O)NC(C)(C)C)c1NC(=O)c1cc(Cn2cc(-c3ccc(Cl)cc3)nn2)nn1-c1ncccc1Cl [Example 54]
chromatographic logP [1]: 3.54
pest or weed control at 100 g/ha [2]: 80%
pest or weed control at 100 g/ha [3]: 100%
pest or weed control at 100 g/ha [4]: 100%

SMILES: CNC(=O)c1cc(C#N)cc(C)c1NC(=O)c1cc(Cn2nnc3cc(C(F)(F)F)ccc32)nn1-c1ncccc1Cl [Example 101]
chromatographic logP [1]: 2.76
pest or weed control at 100 g/ha [2]: 100%
pest or weed control at 100 g/ha [3]: 100%
pest or weed control at 100 g/ha [4]: 100%

chromatographic logP [1, 5]: 3.96
SMILES: Cc1cc(C#N)cc(C(=O)NC(C)(C)C)c1NC(=O)c1cc(Cn2nnc3c(Cl)cc(C(F)(F)F)cc32)nn1-c1ncccc1Cl [Example 110]
pest or weed control at 100 g/ha [2]: 90%
pest or weed control at 100 g/ha [3]: 100%
pest or weed control at 100 g/ha [4]: 100%

SMILES: Cc1cc(Cl)cc(C(=O)NC2CC2)c1NC(=O)c1cc(Cn2nccn2)nn1-c1ncccc1Cl [Example 120]
chromatographic logP [1]: 2.26
pest or weed control at 100 g/ha [2]: 90%
pest or weed control at 100 g/ha [3]: 100%
pest or weed control at 100 g/ha [4]: 100%

SMILES: Cc1cc(Cl)cc(C(=O)NC(C)(C)C)c1NC(=O)c1cc(Cn2nccn2)nn1-c1ncccc1Cl [Example 121]
chromatographic logP [1]: 2.87
pest or weed control at 100 g/ha [2]: 100%
pest or weed control at 100 g/ha [3]: 100%
pest or weed control at 100 g/ha [4]: 100%

SMILES: Cc1cc(C#N)cc(C(N)=O)c1NC(=O)c1cc(Cn2ncc(C(F)(F)F)n2)nn1-c1ncccc1Cl [Example 123]
chromatographic logP [1]: 2.41
pest or weed control at 20 g/ha ([2]; 20 g/ha): 100%
pest or weed control at 100 g/ha [3]: 100%
pest or weed control at 100 g/ha [4]: 100%

SMILES: Cc1cc(C#N)cc(C(=O)NC(C)C2CC2)c1NC(=O)c1cc(Cn2ncc(C(F)(F)F)n2)nn1-c1ncccc1Cl (stereo not shown) [Example 125]
chromatographic logP [1]: 3.39
pest or weed control at 100 g/ha [2]: 100%
pest or weed control at 100 g/ha [3]: 100%
pest or weed control at 100 g/ha [4]: 100%

SMILES: Cc1cc(C#N)cc(C(=O)NC2CC2)c1NC(=O)c1cc(Cn2ncc(C(F)(F)F)n2)nn1-c1ncccc1Cl [Example 126]
chromatographic logP [1]: 2.9
pest or weed control at 100 g/ha [2]: 100%
pest or weed control at 100 g/ha [3]: 83%
pest or weed control at 100 g/ha [4]: 100%

SMILES: CCNC(=O)c1cc(C#N)cc(C)c1NC(=O)c1cc(Cn2ncc(C(F)(F)F)n2)nn1-c1ncccc1Cl [Example 127]
chromatographic logP [1]: 2.88
pest or weed control at 100 g/ha [2]: 90%
pest or weed control at 100 g/ha [3]: 100%
pest or weed control at 100 g/ha [4]: 100%

SMILES: Cc1cc(C#N)cc(C(=O)NCC2CC2)c1NC(=O)c1cc(Cn2ncc(C(F)(F)F)n2)nn1-c1ncccc1Cl [Example 130]
chromatographic logP [1]: 3.17
pest or weed control at 100 g/ha [2]: 100%
pest or weed control at 100 g/ha [3]: 100%
pest or weed control at 100 g/ha [4]: 100%

SMILES: Cc1cc(C#N)cc(C(=O)NC2CCC2)c1NC(=O)c1cc(Cn2ncc(C(F)(F)F)n2)nn1-c1ncccc1Cl [Example 131]
chromatographic logP [1]: 3.23
pest or weed control at 100 g/ha [2]: 90%
pest or weed control at 100 g/ha [3]: 100%
pest or weed control at 100 g/ha [4]: 100%

SMILES: Cc1cc(C#N)cc(C(=O)NC(C)C)c1NC(=O)c1cc(Cn2cc(C(F)(F)F)nn2)nn1-c1ncccc1Cl [Example 181]
chromatographic logP [1]: 2.67
pest or weed control at 100 g/ha [2]: 90%
pest or weed control at 100 g/ha [3]: 100%

SMILES: Cc1cc(I)cc(C(=O)NC(C)(C)C)c1NC(=O)c1cc(Cn2nc(C(F)(F)F)c(C(F)(F)F)n2)nn1-c1ncccc1Cl [Example 404]
chromatographic logP [1]: 4.84
pest or weed control at 100 g/ha [3]: 100%
pest or weed control at 100 g/ha [4]: 100%

SMILES: CNC(=O)c1cc(I)cc(C)c1NC(=O)c1cc(Cn2nc(C(F)(F)F)c(C(F)(F)F)n2)nn1-c1ncccc1Cl [Example 405]
chromatographic logP [1]: 4.03
pest or weed control at 100 g/ha [3]: 100%
pest or weed control at 100 g/ha [4]: 100%

SMILES: Cc1cc(Cl)cc(C(=O)NCC2CC2)c1NC(=O)c1cc(Cn2nc(C(F)(F)F)c(C(F)(F)F)n2)nn1-c1ncccc1Cl [Example 406]
chromatographic logP [1]: 4.29
pest or weed control at 100 g/ha [3]: 100%
pest or weed control at 100 g/ha [4]: 100%

SMILES: Cc1cc(Cl)cc(C(N)=O)c1NC(=O)c1cc(Cn2nc(C(F)(F)F)c(C(F)(F)F)n2)nn1-c1ncccc1Cl [Example 407]
chromatographic logP [1]: 3.49
pest or weed control at 100 g/ha [3]: 100%
pest or weed control at 100 g/ha [4]: 100%

SMILES: Cc1cc(Cl)cc(C(=O)NC(C)C)c1NC(=O)c1cc(Cn2nc(C(F)(F)F)c(C(F)(F)F)n2)nn1-c1ncccc1Cl [Example 409]
chromatographic logP [1]: 4.23
pest or weed control at 100 g/ha [3]: 100%
pest or weed control at 100 g/ha [4]: 100%

SMILES: Cc1cc(Cl)cc(C(=O)NC(C)C2CC2)c1NC(=O)c1cc(Cn2nc(C(F)(F)F)c(C(F)(F)F)n2)nn1-c1ncccc1Cl (stereo not shown) [Example 410]
chromatographic logP [1]: 4.5
pest or weed control at 100 g/ha [3]: 100%
pest or weed control at 100 g/ha [4]: 100%

SMILES: CNC(=O)c1cc(Cl)cc(C)c1NC(=O)c1cc(Cn2nc(C(F)(F)F)c(C(F)(F)F)n2)nn1-c1ncccc1Cl [Example 411]
chromatographic logP [1]: 3.78
pest or weed control at 100 g/ha [3]: 100%
pest or weed control at 100 g/ha [4]: 100%

chromatographic logP [1, 5]: 4.11
SMILES: Cc1cc(C#N)cc(C(=O)NC(C)C2CC2)c1NC(=O)c1cc(Cn2nc(C(F)(F)F)c(C(F)(F)F)n2)nn1-c1ncccc1Cl (stereo not shown) [Example 413]
pest or weed control at 100 g/ha [3]: 100%
pest or weed control at 100 g/ha [4]: 100%
